Experimental data taken from ChEMBL document CHEMBL5523741, “Development of an Orally Bioavailable LCK PROTAC Degrader as a Potential Therapeutic Approach to T-Cell Acute Lymphoblastic Leukemia” (J Med Chem, 2024).
≈ marks a conversion by molar mass, not a printed value.

How the values were obtained:
[1] = Aqueous solubility of the compound incubated for 18 hrs by UPLC-SQDMS; type: physicochemical; settings: buffer
[2] = Apparent permeability of compound across apical to basolateral side in human Caco-2 cells; type: ADME, cell-based
[3] = Apparent permeability of compound across basolateral to apical side in human Caco-2 cells; type: ADME, cell-based
[4] = Metabolic stability in mouse liver microsomes assessed as half life in presence of NADPH by UPLC-MS/MS analysis; type: ADME, Microsome
[5] = target: T1, Protein cereblon/Tyrosine-protein kinase Lck (Homo sapiens, UniProt P06239+Q96SW2); assay: PROTAC activity at HiBit-tagged LCK/CRBN in human KOPT-K1 cells assessed as induction of LCK degradation incubated for 6 hrs by Nano-Glo HiBiT assay relative to control; type: cell-based
Target sequence in this assay (P06239 2-509 limits assumed): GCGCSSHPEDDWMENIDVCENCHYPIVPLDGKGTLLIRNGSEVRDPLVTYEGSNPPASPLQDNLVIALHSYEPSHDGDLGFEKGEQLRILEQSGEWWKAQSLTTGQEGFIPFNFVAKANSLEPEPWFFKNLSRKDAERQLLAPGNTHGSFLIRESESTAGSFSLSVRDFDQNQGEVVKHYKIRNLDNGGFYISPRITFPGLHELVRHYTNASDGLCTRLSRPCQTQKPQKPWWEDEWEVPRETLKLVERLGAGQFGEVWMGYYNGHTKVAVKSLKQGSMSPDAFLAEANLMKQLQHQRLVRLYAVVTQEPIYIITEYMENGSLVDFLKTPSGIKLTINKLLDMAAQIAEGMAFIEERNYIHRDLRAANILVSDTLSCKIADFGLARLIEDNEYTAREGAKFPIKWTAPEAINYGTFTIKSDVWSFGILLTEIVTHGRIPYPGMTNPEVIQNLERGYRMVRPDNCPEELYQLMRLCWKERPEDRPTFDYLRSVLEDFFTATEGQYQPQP
Target sequence in this assay (Q96SW2 whole entry partner): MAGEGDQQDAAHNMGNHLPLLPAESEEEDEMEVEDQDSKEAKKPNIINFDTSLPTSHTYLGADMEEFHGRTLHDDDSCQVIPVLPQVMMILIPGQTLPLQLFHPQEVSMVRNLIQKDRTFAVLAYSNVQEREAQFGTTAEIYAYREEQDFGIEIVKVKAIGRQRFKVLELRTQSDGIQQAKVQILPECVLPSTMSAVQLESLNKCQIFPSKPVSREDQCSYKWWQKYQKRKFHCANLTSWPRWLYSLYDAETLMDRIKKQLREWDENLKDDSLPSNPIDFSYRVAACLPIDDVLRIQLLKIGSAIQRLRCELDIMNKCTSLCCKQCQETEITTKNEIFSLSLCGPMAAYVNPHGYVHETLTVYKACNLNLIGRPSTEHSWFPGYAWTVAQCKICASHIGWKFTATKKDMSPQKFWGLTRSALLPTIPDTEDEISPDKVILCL

[6] = Stability in CD-1 mouse plasma assessed as half life; type: ADME, cell-free
[7] = Drug concentration in CD-1 mouse plasma at 30 mg/kg, po measured after 4 hrs by UPLC-MS/MS analysis; type: ADME, organism-based
[8] = Efflux ratio of apparent permeability across basolateral to apical over apical to basolateral in human Caco-2 cells; type: ADME, cell-based
[9] = Clearance in CD-1 mouse at 3 mg/kg, iv measured up to 24 hrs by LC-MS/MS analysis; type: ADME, organism-based; settings: in vivo
[10] = target: T1, Protein cereblon/Tyrosine-protein kinase Lck; assay: PROTAC activity at HiBit-tagged LCK/CRBN in human KOPT-K1 cells assessed as induction of LCK degradation incubated for 6 hrs by Nano-Glo HiBiT assay; type: cell-based
Target sequence in this assay (P06239 whole entry): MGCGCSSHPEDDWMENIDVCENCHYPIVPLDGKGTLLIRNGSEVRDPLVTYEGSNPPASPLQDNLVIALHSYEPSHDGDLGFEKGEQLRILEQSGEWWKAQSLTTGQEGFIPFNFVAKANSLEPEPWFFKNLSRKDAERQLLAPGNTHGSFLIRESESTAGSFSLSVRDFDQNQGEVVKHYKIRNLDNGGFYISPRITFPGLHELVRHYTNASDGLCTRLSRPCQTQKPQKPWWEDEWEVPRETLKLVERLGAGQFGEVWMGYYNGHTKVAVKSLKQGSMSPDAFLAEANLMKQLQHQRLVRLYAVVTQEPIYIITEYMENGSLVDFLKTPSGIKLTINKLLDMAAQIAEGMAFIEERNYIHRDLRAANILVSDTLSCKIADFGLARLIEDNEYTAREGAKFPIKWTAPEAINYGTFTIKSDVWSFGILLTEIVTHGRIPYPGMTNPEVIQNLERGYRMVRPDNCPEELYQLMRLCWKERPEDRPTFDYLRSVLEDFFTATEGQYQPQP
Target sequence in this assay (Q96SW2 whole entry): as the sequence (Q96SW2 whole entry partner) above

[11] = Oral bioavailability in CD-1 mouse at 10 mg/kg measured up to 24 hrs by LC-MS/MS analysis; type: ADME, organism-based; settings: in vivo

Row | SMILES | solubility at 18 h [1] | Papp A→B [2] | Papp B→A [3] | half-life [4] | Emax [5] | half-life [6] | concentration at 4 h [7] | efflux ratio [8] | clearance [9] | DC50 [10] | bioavailability [11]
1 | Cc1nc(Nc2ncc(C(=O)Nc3c(C)cccc3Cl)s2)cc(N2CCN(C(=O)CCCN3CC4CC3CN4c3ccc(C4CCC(=O)NC4=O)cc3)CC2)n1 (stereo unspecified) | 15.2 µM (≈ 12.1 µg/mL) | 1.32 ×10⁻⁶ cm/s | 1.55 ×10⁻⁶ cm/s | 0.54 h | 88% | 4.25 h | 1.19 ng/mL |  |  |  | 
2 | Cc1nc(Nc2ncc(C(=O)Nc3c(C)cccc3Cl)s2)cc(N2CCC(N(C)C3CCN(c4ccc(C5CCC(=O)NC5=O)cc4)CC3)CC2)n1 (stereo unspecified) |  | 1.93 ×10⁻⁶ cm/s | 12.7 ×10⁻⁶ cm/s | 2.1 h | < 60% | 3.84 h | 207 ng/mL | 6.56 |  |  | 
3 | Cc1nc(Nc2ncc(C(=O)Nc3c(C)cccc3Cl)s2)cc(N2CCN(CCCC(=O)N3CCN(c4ccc(C5CCC(=O)NC5=O)cc4)CC3)CC2)n1 (stereo unspecified) | 0.15 µM (≈ 0.118 µg/mL) |  |  | 1.06 h | 93% |  |  |  |  |  | 
4 | Cc1nc(Nc2ncc(C(=O)Nc3c(C)cccc3Cl)s2)cc(N2CCN(CC3CCN(c4ccc(C5CCC(=O)NC5=O)cc4)CC3)CC2)n1 (stereo unspecified) |  |  |  | 3.5 h | < 60% |  |  |  |  |  | 
5 | Cc1nc(Nc2ncc(C(=O)Nc3c(C)cccc3Cl)s2)cc(N2CCN(CCCN3CC4CC3CN4c3ccc(C4CCC(=O)NC4=O)cc3)CC2)n1 (stereo unspecified) | 14.5 µM (≈ 11.2 µg/mL) |  |  | 2.6 h | 83% |  |  |  |  |  | 
6 | Cc1nc(Nc2ncc(C(=O)Nc3c(C)cccc3Cl)s2)cc(N2CCN(CCCC(=O)N3CCC4(CC3)CCN(c3ccc(C5CCC(=O)NC5=O)cc3)CC4)CC2)n1 (stereo unspecified) | 1.5 µM (≈ 1.28 µg/mL) |  |  | 1.2 h | 86% |  |  |  |  |  | 

Next, values leading:

Row | solubility at 18 h [1] | Papp A→B [2] | Papp B→A [3] | half-life [4] | Emax [5] | half-life [6] | concentration at 4 h [7] | efflux ratio [8] | clearance [9] | DC50 [10] | bioavailability [11] | SMILES
7 | 1.4 µM (≈ 1.16 µg/mL) | 0.231 ×10⁻⁶ cm/s | 5.3 ×10⁻⁶ cm/s | 10 h | 93% | 47.4 h | 18 ng/mL |  |  |  |  | Cc1nc(Nc2ncc(C(=O)Nc3c(C)cccc3Cl)s2)cc(N2CCN(CCCN3CCC4(CC3)CCN(c3ccc(C5CCC(=O)NC5=O)cc3)CC4)CC2)n1 (stereo unspecified)
8 | 7.54 µM (≈ 5.82 µg/mL) | 1.15 ×10⁻⁶ cm/s | 13.3 ×10⁻⁶ cm/s | 10 h | 84% | 30.1 h |  | 11.6 | 169 mL/min/kg | 4.48 nM | 3.1% | Cc1nc(Nc2ncc(C(=O)Nc3c(C)cccc3Cl)s2)cc(N2CCN(CCCN3CCN(Cc4ccc(C5CCC(=O)NC5=O)cc4)CC3)CC2)n1 (stereo unspecified)
9 | 1.87 µM (≈ 1.39 µg/mL) |  |  | 4 h | 62% |  |  |  |  | 53 nM |  | Cc1nc(Nc2ncc(C(=O)Nc3c(C)cccc3Cl)s2)cc(N2CCN(CCN3CCN(c4ccc(C5CCC(=O)NC5=O)cc4)CC3)CC2)n1 (stereo unspecified)
